Columns and labels:
Test in all cases: relative viability (nuclei count vs DMSO), 5 days (fraction); higher = more cells survive
[1] = compound: CC[C@@H](C)CNCC(=O)N1CCC2=C([C@@H]1COC3=CC=CC(=C3)C)C=CS2 [RU-SKI 43] + Cc1cc(Nc2cc(N3CCN(C)CC3)nc(Sc3ccc(NC(=O)C4CC4)cc3)n2)n[nH]1 [Tozasertib] (partner 0.1 µM)
Summary of the method: (§1)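 Relative viability is defined as nuclei in treated wells over nuclei in vehicle wells. Duplicate plates were run and medians reported. Lung cancer cell lines in 1536-well plates were dosed by pin tool one day after seeding, with one drug or with a fixed anchor-drug dose plus five library-drug doses (not always all listed) in √10 steps, and nuclei were counted after 5 days.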

[2] = compound: CC[C@@H](C)CNCC(=O)N1CCC2=C([C@@H]1COC3=CC=CC(=C3)C)C=CS2 [RU-SKI 43] + O=C(c1cc(Cc2n[nH]c(=O)c3ccccc23)ccc1F)N1CCN(C(=O)C2CC2)CC1 [Olaparib] (partner 8 µM)
Summary of the method: as §1

[3] = compound: CCc1c2c(nc3ccc(OC(=O)N4CCC(N5CCCCC5)CC4)cc13)-c1cc3c(c(=O)n1C2)COC(=O)[C@]3(O)CC [Irinotecan] + C[C@]1(O)C[C@@H](c2nc(-c3ccc4ccc(-c5ccccc5)nc4c3)c3c(N)nccn32)C1 [Linsitinib] (partner 1 µM)
Summary of the method: as §1

[4] = compound: CCc1c2c(nc3ccc(OC(=O)N4CCC(N5CCCCC5)CC4)cc13)-c1cc3c(c(=O)n1C2)COC(=O)[C@]3(O)CC [Irinotecan] + N=C(N)NC(=N)NCCc1ccccc1 [Phenformin] (partner 250 µM)
Summary of the method: as §1

Row | Cell Line | relative viability ([1]; first compound 0.1 µM) | relative viability ([1]; first compound 0.3162 µM) | relative viability ([1]; first compound 1 µM) | relative viability ([1]; first compound 3.162 µM) | relative viability ([1]; first compound 10 µM) | relative viability ([2]; first compound 0.1 µM) | relative viability ([2]; first compound 0.3162 µM) | relative viability ([2]; first compound 1 µM) | relative viability ([2]; first compound 3.162 µM) | relative viability ([2]; first compound 10 µM) | relative viability ([3]; first compound 0.6325 µM) | relative viability ([3]; first compound 2 µM) | relative viability ([3]; first compound 6.325 µM) | relative viability ([3]; first compound 20 µM) | relative viability ([4]; first compound 0.6325 µM) | relative viability ([4]; first compound 2 µM) | relative viability ([4]; first compound 6.325 µM) | relative viability ([4]; first compound 20 µM)
1 | NCI-H1755 | 0.622 | 0.651 | 0.602 | 0.571 | 0.496 | 0.835 | 0.975 | 0.99 | 0.923 | 0.908 | 0.927 | 0.396 | 0.303 | 0.366 | 0.498 | 0.603 | 0.296 | 0.307
2 | LOU-NH91 | 0.659 | 0.646 | 0.672 | 0.702 | 0.6 | 0.908 | 0.94 | 0.973 | 0.926 | 0.879 | 0.834 | 0.706 | 0.431 | 0.309 | 0.617 | 0.639 | 0.377 | 0.391
3 | NCI-H1975 | 0.755 | 0.852 | 0.854 | 0.712 | 0.574 | 0.752 | 1 | 0.892 | 0.729 | 0.767 | 1.1 | 0.803 | 0.326 | 0.204 | 0.407 | 0.448 | 0.296 | 0.194
4 | NCI-H650 | 0.724 | 0.717 | 0.765 | 0.709 | 0.654 | 0.404 | 0.517 | – | 0.38 | 0.406 | 0.701 | 0.562 | 0.237 | 0.303 | 0.36 | 0.409 | 0.239 | 0.248
5 | SW 1573 | 0.209 | 0.22 | 0.204 | 0.123 | 0.196 | 0.442 | 0.479 | 0.51 | 0.435 | 0.41 | 0.627 | 0.534 | 0.2 | 0.178 | 0.32 | 0.425 | 0.248 | 0.146
6 | NCI-H441 | 0.597 | 0.542 | 0.541 | 0.736 | 0.554 | 0.709 | 0.576 | 0.627 | 0.736 | 0.542 | 0.547 | 0.339 | 0.241 | 0.341 | 0.566 | 0.759 | 0.299 | 0.224
7 | NCI-H1944 | 0.251 | 0.27 | 0.257 | 0.251 | 0.23 | 0.391 | 0.417 | 0.413 | 0.433 | 0.386 | 0.819 | 0.38 | 0.241 | 0.249 | 0.191 | 0.187 | 0.132 | 0.132
8 | NCI-H838 | 0.243 | 0.242 | 0.273 | 0.258 | 0.254 | 0.842 | 0.798 | 0.806 | 0.798 | 0.738 | 1.17 | 0.849 | 0.372 | 0.228 | 0.661 | 0.587 | 0.312 | 0.202
9 | NCI-H661 | 0.345 | 0.349 | 0.345 | 0.335 | 0.365 | 0.763 | 0.976 | 0.718 | 0.786 | 0.665 | 0.583 | 0.476 | 0.334 | 0.256 | 0.254 | 0.329 | 0.277 | 0.191
